The text below walks through data of patent publication US20120270884A1, “Methods of Treating Aneurysmal Dilatation, Blood Vessel Wall Weakness and Specifically Abdominal Aortic and Thoracic Aneurysm Using Matrix Metalloprotease-2 Inhibitors” (SYMPHONY EVOLUTION, INC., priority 2009, published 2012).

The target in assay [1] is T1, MMP-1 (Fibroblast collagenase) (Homo sapiens, UniProt P03956).
T1 sequence (P03956 100-469): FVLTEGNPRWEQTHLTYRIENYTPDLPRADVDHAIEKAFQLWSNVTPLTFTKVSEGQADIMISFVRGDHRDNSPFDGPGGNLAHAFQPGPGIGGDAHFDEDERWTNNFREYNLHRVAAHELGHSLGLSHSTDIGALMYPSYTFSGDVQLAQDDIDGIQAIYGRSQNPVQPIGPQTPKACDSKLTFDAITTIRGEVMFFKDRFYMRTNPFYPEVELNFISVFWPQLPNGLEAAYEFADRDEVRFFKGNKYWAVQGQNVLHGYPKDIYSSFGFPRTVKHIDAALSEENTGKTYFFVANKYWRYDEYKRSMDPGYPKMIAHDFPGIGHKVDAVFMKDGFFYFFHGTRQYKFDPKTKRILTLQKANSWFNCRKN
As to the kind of experiment: In vitro metalloprotease inhibition, MMP-1. In kind it is biochemical. An excerpt:
(§1) Blank cells indicate lack of data only.

In assay [2] the target is T2, MMP-2 (72 kDa gelatinase, gelatinase A) (Homo sapiens, UniProt P08253).
T2 sequence (P08253 110-660): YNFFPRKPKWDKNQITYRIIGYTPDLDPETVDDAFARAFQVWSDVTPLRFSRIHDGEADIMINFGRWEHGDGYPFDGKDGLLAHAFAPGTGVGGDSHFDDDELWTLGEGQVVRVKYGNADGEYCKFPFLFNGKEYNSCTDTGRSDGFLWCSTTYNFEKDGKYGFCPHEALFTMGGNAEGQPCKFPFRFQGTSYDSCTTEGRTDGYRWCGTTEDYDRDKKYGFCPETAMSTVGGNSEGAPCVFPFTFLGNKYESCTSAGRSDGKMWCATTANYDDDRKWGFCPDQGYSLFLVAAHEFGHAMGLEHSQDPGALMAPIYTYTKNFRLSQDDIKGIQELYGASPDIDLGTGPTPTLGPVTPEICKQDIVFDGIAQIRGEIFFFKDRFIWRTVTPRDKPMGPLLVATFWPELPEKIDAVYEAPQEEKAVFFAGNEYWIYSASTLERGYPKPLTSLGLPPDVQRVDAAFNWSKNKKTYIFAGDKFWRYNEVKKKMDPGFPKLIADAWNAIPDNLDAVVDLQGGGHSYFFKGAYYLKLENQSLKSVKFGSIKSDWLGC
In words: In vitro metalloprotease inhibition, MMP-2. In kind it is biochemical.

For a further assay, the target named is MMP-3 (Stromelysin-1) (Homo sapiens, UniProt P08254). In words: In vitro metalloprotease inhibition, MMP-3. In kind it is biochemical.
Excerpt: as §1

A further assay concerns the target MMP-13 (collagenase-3) (Homo sapiens, UniProt P45452). As to the kind of experiment: In vitro metalloprotease inhibition, MMP-13. It counts as biochemical.
The next assay deals with T3, ADAM-10 (UniProt O14672).
T3 sequence (O14672 1-748): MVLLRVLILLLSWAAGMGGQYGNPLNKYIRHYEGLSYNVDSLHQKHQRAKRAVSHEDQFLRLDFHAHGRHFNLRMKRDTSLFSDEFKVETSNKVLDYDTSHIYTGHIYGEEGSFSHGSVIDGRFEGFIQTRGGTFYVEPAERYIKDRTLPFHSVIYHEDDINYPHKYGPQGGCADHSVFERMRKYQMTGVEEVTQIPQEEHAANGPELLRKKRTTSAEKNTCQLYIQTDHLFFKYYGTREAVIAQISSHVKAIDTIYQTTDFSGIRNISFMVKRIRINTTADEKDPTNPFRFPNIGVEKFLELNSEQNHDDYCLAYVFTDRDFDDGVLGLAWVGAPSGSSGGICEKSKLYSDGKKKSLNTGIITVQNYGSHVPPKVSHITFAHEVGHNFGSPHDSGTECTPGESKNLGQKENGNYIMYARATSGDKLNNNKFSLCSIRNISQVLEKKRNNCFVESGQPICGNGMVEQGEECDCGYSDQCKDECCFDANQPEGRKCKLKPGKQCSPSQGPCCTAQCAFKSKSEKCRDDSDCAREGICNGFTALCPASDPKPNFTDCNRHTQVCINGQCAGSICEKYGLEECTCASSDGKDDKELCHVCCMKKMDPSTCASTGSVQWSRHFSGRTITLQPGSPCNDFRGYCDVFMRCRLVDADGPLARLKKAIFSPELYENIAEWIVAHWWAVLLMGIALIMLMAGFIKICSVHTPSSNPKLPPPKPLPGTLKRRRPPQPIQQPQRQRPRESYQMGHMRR
As to the kind of experiment: ADAM-10 enzyme assay, cleavage of fluorogenic 10-residue peptide. As to conditions: read-out: IC50 ADAM-10; in vitro.

For assay [3], the target named is TACE (TNF-alpha converting enzyme, ADAM-17) (Homo sapiens, UniProt P78536). As to the kind of experiment: In vitro metalloprotease inhibition, TACE. It counts as biochemical.
Excerpt: as §1

For assay [4], the target named is MMP-8 (Neutrophil collagenase) (Homo sapiens, UniProt P22894). In words: In vitro metalloprotease inhibition, MMP-8. It counts as biochemical.
In assay [5] the target is MMP-9 (92 kDa gelatinase, gelatinase B) (Homo sapiens, UniProt P14780). In words: In vitro metalloprotease inhibition, MMP-9. It counts as biochemical.
The subject of assay [6] is abdominal aorta of C57/B16 mice after elastase perfusion. In words: Elastase-perfusion mouse model of AAA. It counts as in vivo. From the text:
All mice used in the experiment were commercially obtained C57/B16 inbred strain mice. Throughout the experimental course, mice were allowed free access to food and water. Animals were housed in a controlled animal facility, and all mouse care and treatment occurred under approved protocols.
A total of 89 C57/B16 mice were subjected to transient perfusion of the abdominal aorta according to a protocol known in the art. Briefly, after sedation and preparation, the aorta was approached through a midline laparotomy. The infrarenal aorta was dissected and the diameter was measured under physiologic blood pressure. A segment of infrarenal aorta was isolated and a 5 minute perfusion of this segment was performed through an arteriotomy at 100 mmHg with a solution containing type I porcine pancreatic elastase (PPE 0.16 U/mL). All of the experiments were performed with a single PPE preparation derived from the same commercial source and lot.
Following aortic perfusion the arteriotomy was repaired, the laparotomy was closed and the animal was allowed to completely recover before returning to its standard housing.
Following aortic perfusion, animals were placed into one of 5 treatment groups. […] Three different doses of the agent were used, 50 mg/kg/day (n=17), 125 mg/kg/day (n=17), and 250 mg/kg/day (n=18). There were two mice in each group which died following aortic perfusion, and all others were available for analysis. Control animals (n=18) were similarly treated with daily gavage of the Cremophor diluent only. Of these mice, 16 survived the two weeks following aortic perfusion and underwent final aortic measurements and harvest. […] In this group, 4 mice died prior to the two week harvest, and all others were used in the analysis of aneurysm growth.
Two weeks following elastase perfusion, the mice were again anesthetized; the laparotomy incision was reopened and the final aortic diameter was measured in vivo prior to sacrifice. The animals were humanely sacrificed, and circulating blood and the entire perfused segment of aorta was harvested for RNA extraction, protein extraction or histology.
The aortas from several mice from each experimental group were perfusion fixed with 10% neutral-buffered formalin, removed, and placed in additional formalin for a minimum of 24 hours prior to processing for paraffin embedding. Following paraffin embedding, aortic specimens were cut into 5 μm sections and mounted on glass slides. Each specimen was stained with hematoxylin and eosin to evaluate inflammatory cell infiltration and Accustain® Elastic Stain kit to assess the degree of elastin degradation. Photomicrographs of serial sections were obtained using an Olympus BX60 light microscope equipped with CV12 video capture camera. […]

Chain of MMP-3 (Stromelysin-1) (P08254 100-477, species assumed): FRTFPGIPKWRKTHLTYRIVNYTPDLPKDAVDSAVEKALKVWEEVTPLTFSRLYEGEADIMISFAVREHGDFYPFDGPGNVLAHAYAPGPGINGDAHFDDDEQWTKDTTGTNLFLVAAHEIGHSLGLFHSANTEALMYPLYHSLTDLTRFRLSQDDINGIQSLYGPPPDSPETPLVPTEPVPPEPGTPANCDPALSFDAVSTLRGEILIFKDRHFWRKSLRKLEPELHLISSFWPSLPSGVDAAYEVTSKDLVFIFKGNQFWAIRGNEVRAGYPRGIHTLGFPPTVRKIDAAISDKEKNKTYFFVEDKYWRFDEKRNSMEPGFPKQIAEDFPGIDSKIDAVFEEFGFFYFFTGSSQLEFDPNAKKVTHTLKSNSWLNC
Chain of TACE (TNF-alpha converting enzyme, ADAM-17) (P78536 215-824): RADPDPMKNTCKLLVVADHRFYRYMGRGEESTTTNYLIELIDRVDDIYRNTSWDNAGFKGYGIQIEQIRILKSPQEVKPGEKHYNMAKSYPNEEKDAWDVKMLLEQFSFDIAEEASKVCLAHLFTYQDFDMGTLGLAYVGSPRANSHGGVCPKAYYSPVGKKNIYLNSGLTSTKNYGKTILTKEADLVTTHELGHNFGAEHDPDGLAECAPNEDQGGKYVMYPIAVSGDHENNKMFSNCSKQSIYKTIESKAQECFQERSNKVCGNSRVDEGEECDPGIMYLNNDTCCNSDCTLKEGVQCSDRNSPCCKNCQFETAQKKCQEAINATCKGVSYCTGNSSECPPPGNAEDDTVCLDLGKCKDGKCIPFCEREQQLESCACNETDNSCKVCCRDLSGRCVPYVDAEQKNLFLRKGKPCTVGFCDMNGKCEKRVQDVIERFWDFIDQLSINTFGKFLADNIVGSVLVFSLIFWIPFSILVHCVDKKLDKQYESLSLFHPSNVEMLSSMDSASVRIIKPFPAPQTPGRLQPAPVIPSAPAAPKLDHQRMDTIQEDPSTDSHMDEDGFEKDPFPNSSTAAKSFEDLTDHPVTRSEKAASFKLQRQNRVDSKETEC
Chain of MMP-9 (92 kDa gelatinase, gelatinase B) (P14780 94-707, species assumed): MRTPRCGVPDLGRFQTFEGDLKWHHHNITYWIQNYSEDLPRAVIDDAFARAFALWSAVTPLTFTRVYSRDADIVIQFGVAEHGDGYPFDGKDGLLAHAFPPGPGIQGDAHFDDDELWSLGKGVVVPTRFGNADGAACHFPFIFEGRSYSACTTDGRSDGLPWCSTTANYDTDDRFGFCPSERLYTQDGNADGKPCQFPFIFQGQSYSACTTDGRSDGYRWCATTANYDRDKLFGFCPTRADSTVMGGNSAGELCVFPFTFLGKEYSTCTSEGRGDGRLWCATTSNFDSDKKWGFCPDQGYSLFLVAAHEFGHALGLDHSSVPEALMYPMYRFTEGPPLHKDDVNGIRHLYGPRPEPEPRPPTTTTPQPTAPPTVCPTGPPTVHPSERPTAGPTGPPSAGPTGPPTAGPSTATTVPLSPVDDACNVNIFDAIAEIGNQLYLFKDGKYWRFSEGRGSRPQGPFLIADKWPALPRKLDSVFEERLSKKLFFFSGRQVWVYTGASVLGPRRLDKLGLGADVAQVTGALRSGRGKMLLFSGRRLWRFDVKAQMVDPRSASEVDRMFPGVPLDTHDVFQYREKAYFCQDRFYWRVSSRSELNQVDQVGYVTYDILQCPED
Chain of MMP-8 (Neutrophil collagenase) (P22894 101-467, species assumed): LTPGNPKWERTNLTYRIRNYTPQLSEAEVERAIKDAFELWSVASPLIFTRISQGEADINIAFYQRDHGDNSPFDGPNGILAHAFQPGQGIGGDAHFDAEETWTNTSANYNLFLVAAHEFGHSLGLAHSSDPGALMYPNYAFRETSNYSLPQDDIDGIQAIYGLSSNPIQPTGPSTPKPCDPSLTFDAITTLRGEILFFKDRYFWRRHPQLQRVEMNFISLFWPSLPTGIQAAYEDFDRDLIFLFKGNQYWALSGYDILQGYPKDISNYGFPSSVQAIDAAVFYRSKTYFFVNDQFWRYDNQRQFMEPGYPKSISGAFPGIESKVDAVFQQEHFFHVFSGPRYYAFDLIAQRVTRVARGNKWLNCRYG
Experimental for ADAM-10: mADAM-10 or hADAM-10 activity was measured as the ability to cleave a 10-residue peptide (DABCYL-Leu-Leu-Ala-Gln-Lys-*-Leu-Arg-Ser-Ser-Arg-EDANS). […] Enzyme was diluted to a final active concentration of 5 nM in Buffer A (50 mM HEPES 8.0, 100 mM NaCl, 1 mM CaCl2 and 0.01% NP-40). Serial dilutions for compounds were performed ranging from 100 μM to 0.5 nM using a Beckman Biomek 2000 in polypropylene plates (Greiner). 20 μl of enzyme solution was added to 10 μl of compound in buffer A, and allowed to incubate for 15 min in 384 well black, Greiner, microtiter plates (#781076). 20 μl of substrate (12.5 μM in Buffer A) was then added, resulting in final reaction conditions of 2 nM ADAM-10, 5 μM substrate, and compound concentrations ranging from 20 uM to 0.1 nM. The reaction was incubated for 2 hr at RT, and fluorescence was measured at Ex355, Em460 on a Wallac Victor 2 fluorescence reader. […] This reaction was incubated for 16 hr at RT and fluorescence was read using identical conditions.

Usually IC50 stands for the concentration at which inhibition is half-maximal. Regarding `O=C(NO)[C@H]1CN(C(=O)c2cc(F)c(O)c(F)c2)CCN1S(=O)(=O)c1cc(F)c(Oc2ccc(Cl)cc2)c(F)c1` [Entry 41], the IC50 is 1000 to 20000 nM in assay [1]; less than 50 nM in assay [2]; less than 50 nM against MMP-3 (Stromelysin-1); less than 50 nM against MMP-13 (collagenase-3); less than 50 nM on ADAM-10.
Consider `O=C(NO)[C@H]1CN(C(=O)N2CCOCC2)CCN1S(=O)(=O)c1cc(F)c(Oc2ccc(Cl)cc2)c(F)c1` [Entry 30], for which the IC50 in assay [3] is 50 to 1000 nM; in assay [1] it was 1000 to 20000 nM; in [2] it was less than 50 nM; against MMP-3 (Stromelysin-1), 50 to 1000 nM; in assay [4], less than 50 nM; in [5], 50 to 1000 nM. This compound yielded an IC50 against MMP-13 (collagenase-3) of less than 50 nM.
As for `COCCOC(=O)N1CCN(S(=O)(=O)c2cc(F)c(Oc3ccc(Cl)cc3)c(F)c2)[C@@H](C(=O)NO)C1` [Entry 15], the half-inhibitory concentration (IC50) in assay [3] was 50 to 1000 nM; in assay [1] it was 1000 to 20000 nM; against MMP-3 (Stromelysin-1), 50 to 1000 nM. Besides, the “animals which did not develop aneurysms (% ΔAD not greater than 100%)” value in assay [6] (mice, 250 mg/kg/day daily gavage, 2 weeks, not statistically different than controls) is 12%. The “aortic histology: degree of elastin damage and inflammatory cell inflammation” value in [6] (mice, 50, 125, 250 mg/kg/day daily gavage, aorta at harvest, H&E and VVG stain) is reported as “inversely correlated with the dose of the agent administered”. Further, in assay [6] (mice, all doses (50, 125, 250 mg/kg/day), 2 weeks), the “aortic diameters at harvest versus control animals” value is recorded as “significantly smaller than control animals”. Moreover, the “maximal diameters (% ΔAD) of all animals” value in assay [6] (mice, low and intermediate dose groups (50 and 125 mg/kg/day), 2 weeks) was “greater than 100%”.
`O=C(NO)[C@H]1CN(S(=O)(=O)Cc2ccncc2)CCN1S(=O)(=O)c1cc(F)c(Oc2ccc(Cl)cc2)c(F)c1` [Entry 34]: the concentration for half-maximal inhibition (IC50) is less than 50 nM in assay [3]; 1000 to 20000 nM in [1]; less than 50 nM in assay [2]; 50 to 1000 nM at MMP-3 (Stromelysin-1); less than 50 nM on MMP-13 (collagenase-3).
As for `O=C(NO)[C@H]1CN(C(=O)C(=O)N2CCOCC2)CCN1S(=O)(=O)c1cc(F)c(Oc2ccc(Cl)cc2)c(F)c1` [Entry 31], the IC50 in [3] is 50 to 1000 nM; in assay [1] it was 1000 to 20000 nM; in assay [2] it was less than 50 nM; against MMP-3 (Stromelysin-1), 50 to 1000 nM; against MMP-13 (collagenase-3) it was less than 50 nM.
Consider `CN(C)CCS(=O)(=O)N1CCN(S(=O)(=O)c2cc(F)c(Oc3ccc(Cl)cc3)c(F)c2)[C@@H](C(=O)NO)C1` [Entry 54], for which the concentration for half-maximal inhibition (IC50) in assay [3] was less than 50 nM; in assay [1] it was 50 to 1000 nM; in assay [2], less than 50 nM; against MMP-3 (Stromelysin-1), less than 50 nM; on MMP-13 (collagenase-3), less than 50 nM.
Turning to `O=C(NO)[C@H]1CN(S(=O)(=O)NC(=O)N2CCCCC2)CCN1S(=O)(=O)c1cc(F)c(Oc2ccc(Cl)cc2)c(F)c1` [Entry 37], the IC50 in [3] is 50 to 1000 nM; in assay [1] it was 1000 to 20000 nM; in [2], less than 50 nM; on MMP-3 (Stromelysin-1) it was less than 50 nM; at MMP-13 (collagenase-3), less than 50 nM.
